Patent US20250313572A1, “MACROCYCLIC MCL-1 INHIBITORS AND METHODS OF USE” (AbbVie Inc., priority 2017, published 2025)
Like-named read-outs stand apart in the source and are kept apart here.

Legend:
GST-MCL-1 = GST-MCL-1 (Homo sapiens, UniProt Q07820); experiment: TR-FRET MCL-1 binding assay (competition with probe F-Bak)
Method: Tb-anti-GST antibody was purchased from Invitrogen (Catalog No. PV4216).
For the assay, an acoustic dispenser was used to prepare dilution series from 10 mM test compounds in 100% DMSO and directly transfer 160 nL into low volume 384-well assay plates. 8 μL of a protein/probe/antibody mix was then added to each well resulting in final concentrations listed below: • Test compound: 11 three-fold dilutions beginning at 25 μM
The samples were then mixed on a shaker for 1 minute and incubated for an additional 2 hours at room temperature. For each assay plate, a probe/antibody and protein/antibody/probe mixture were included as a negative and a positive control, respectively. Fluorescence was measured on the Envision (Perkin Elmer) using a 340/35 nm excitation filter and 520/525 (F-Bak) and 495/510 nm (Tb-labeled anti-his antibody) emission filters. […] The TR-FRET assay can be performed in the presence of varying concentrations of human serum (HS) or fetal bovine serum (FBS). Compounds were tested both without HS and in the presence of 10% HS.

[1] = tested on: AMO-1 human multiple myeloma tumor cell line; experiment: AMO-1 cell viability assay (CellTiter-Glo, 24 hours); format: cell-based
[2] = tested on: NCI-H929 human multiple myeloma tumor cell line; experiment: NCI-H929 cell viability assay (CellTiter-Glo, 24 hours); format: cell-based
[3] = MCL-1 Binding Ki (nM, 10% HS), in the presence of 10% HS (human serum)
[4] = without HS, read-out: MCL-1 Binding Ki
[5] = read-out: AMO-1 Viability IC50 (μM, 10% FBS), 10% FBS, 24 hours of compound treatment
[6] = read-out: H929 Viability IC50 (μM, 10% FBS), 10% FBS, 24 hours of compound treatment
[7] = Homo sapiens, AMO1, 24 h, read-out: AMO-1 Viability IC50 (μM, 10% FBS), 10% FBS, 24 hours of compound treatment
[8] = Homo sapiens, NCI-H929, 24 h, read-out: H929 Viability IC50 (μM, 10% FBS), 10% FBS, 24 hours of compound treatment

GST-MCL-1, sequence (Q07820 whole entry): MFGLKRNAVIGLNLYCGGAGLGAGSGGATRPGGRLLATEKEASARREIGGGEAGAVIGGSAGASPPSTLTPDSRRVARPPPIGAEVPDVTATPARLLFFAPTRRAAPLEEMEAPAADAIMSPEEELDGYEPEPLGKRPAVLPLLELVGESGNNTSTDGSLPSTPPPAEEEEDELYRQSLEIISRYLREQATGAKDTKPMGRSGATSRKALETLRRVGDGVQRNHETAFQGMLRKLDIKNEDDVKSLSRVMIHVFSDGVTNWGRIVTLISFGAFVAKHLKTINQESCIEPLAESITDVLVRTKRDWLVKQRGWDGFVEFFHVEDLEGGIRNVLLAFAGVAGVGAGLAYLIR

Structure (SMILES): COCCOCCOCCC1CCN(C[C@@H]2COc3ccc(OCc4ccnc(-c5ccccc5OC)n4)c(c3)C[C@H](C(=O)O)Oc3ncnc4sc(-c5ccc(F)cc5)c(c34)-c3ccc(c(Cl)c3C)O2)CC1 (atropisomer, axis not shown) [Example 21, (7R,16R,21S)-19-chloro-1-(4-fluorophenyl)-16-[(4-{2-[2-(2-methoxyethoxy)ethoxy]ethyl}piperidin-1-yl)methyl]-10-{[2-(2-methoxyphenyl)pyrimidin-4-yl]methoxy}-20-methyl-7,8,15,16-tetrahydro-18,21-etheno-13,9-(metheno)-6,14,17-trioxa-2-thia-3,5-diazacyclononadeca[1,2,3-cd]indene-7-carboxylic Acid]
- Ki (GST-MCL-1; [3]): 0.556 nM
- Ki (GST-MCL-1; [4]): 0.059 nM
- IC50 [1, 5]: 0.0143 µM
- IC50 [2, 6]: 0.0102 µM

Structure (SMILES): Cc1c2ccc(c1Cl)O[C@H](CN1CCN(C)CC1)COc1ccc(OCc3ccnc(-c4ccccc4OCC(=O)O)n3)c(c1)C[C@H](C(=O)O)Oc1ncnc3sc(-c4ccc(F)cc4)c-2c13 (atropisomer, axis not shown) [Example 24, (7R,16R,21S)-10-({2-[2-(carboxymethoxy)phenyl]pyrimidin-4-yl}methoxy)-19-chloro-1-(4-fluorophenyl)-20-methyl-16-[(4-methylpiperazin-1-yl)methyl]-7,8,15,16-tetrahydro-18,21-etheno-13,9-(metheno)-6,14,17-trioxa-2-thia-3,5-diazacyclononadeca[1,2,3-cd]indene-7-carboxylic Acid]
- Ki (GST-MCL-1; [3]): 0.098 nM
- Ki (GST-MCL-1; [4]): 0.015 nM
- IC50 [1, 7]: 0.0385 µM
- IC50 [2, 8]: 0.157 µM

Structure (SMILES): COCCOCCOCCC1CCN(C[C@@H]2COc3ccc(OCc4ccnc(-c5ccccc5OC)n4)c(c3)C[C@H](C(=O)O)Oc3ncnc4sc(-c5ccc(F)cc5)c(c34)-c3ccc(c(Cl)c3C)O2)CC1 (atropisomer, axis not shown) [Example 27, (7R,16R,21R)-19-chloro-1-(4-fluorophenyl)-16-[(4-{2-[2-(2-methoxyethoxy)ethoxy]ethyl}piperidin-1-yl)methyl]-10-{[2-(2-methoxyphenyl)pyrimidin-4-yl]methoxy}-20-methyl-7,8,15,16-tetrahydro-18,21-etheno-13,9-(metheno)-6,14,17-trioxa-2-thia-3,5-diazacyclononadeca[1,2,3-cd]indene-7-carboxylic Acid]
- Ki (GST-MCL-1; [3]): 22 nM
- Ki (GST-MCL-1; [4]): 0.987 nM
- IC50 [1, 5]: 0.314 µM
- IC50 [2, 6]: 0.319 µM

Structure (SMILES): COCCOCCOCCOCCOC[C@@H]1CCCC[C@H]1c1nccc(COc2ccc3cc2C[C@H](C(=O)O)Oc2ncnc4sc(-c5ccc(F)cc5)c(c24)-c2c(C)c(Cl)c(c(Cl)c2C)O[C@H](CN2CCN(C)CC2)CO3)n1 (relative stereo) [Example 120, (7R,16R)-19,23-dichloro-1-(4-fluorophenyl)-20,22-dimethyl-16-[(4-methylpiperazin-1-yl)methyl]-10-({2-[(1R*,2R*)-2-(2,5,8,11,14-pentaoxapentadecan-1-yl)cyclohexyl]pyrimidin-4-yl}methoxy)-7,8,15,16-tetrahydro-18,21-etheno-13,9-(metheno)-6,14,17-trioxa-2-thia-3,5-diazacyclononadeca[1,2,3-cd]indene-7-carboxylic Acid]
- Ki (GST-MCL-1; [4]): 26.3 nM
- IC50 [1, 7]: 0.000231 µM
- IC50 [2, 8]: 0.000386 µM

Structure (SMILES): COCCOCCOCCOCCOC[C@H]1CCCC[C@@H]1c1nccc(COc2ccc3cc2C[C@H](C(=O)O)Oc2ncnc4sc(-c5ccc(F)cc5)c(c24)-c2c(C)c(Cl)c(c(Cl)c2C)O[C@H](CN2CCN(C)CC2)CO3)n1 (relative stereo) [Example 124, (7R,16R)-19,23-dichloro-1-(4-fluorophenyl)-20,22-dimethyl-16-[(4-methylpiperazin-1-yl)methyl]-10-({2-[(1S*,2S*)-2-(2,5,8,11,14-pentaoxapentadecan-1-yl)cyclohexyl]pyrimidin-4-yl}methoxy)-7,8,15,16-tetrahydro-18,21-etheno-13,9-(metheno)-6,14,17-trioxa-2-thia-3,5-diazacyclononadeca[1,2,3-cd]indene-7-carboxylic Acid]
- Ki (GST-MCL-1; [3]): 0.145 nM
- Ki (GST-MCL-1; [4]): 0.012 nM
- IC50 [1, 7]: 0.000355 µM
- IC50 [2, 8]: 0.000818 µM

Structure (SMILES): COCCOCCOC[C@@]1(F)CC=C(c2nccc(COc3ccc4cc3C[C@H](C(=O)O)Oc3ncnc5sc(C6=CCCC6)c(c35)-c3c(C)c(Cl)c(c(Cl)c3C)O[C@H](CN3CCN(C)CC3)CO4)n2)CC1 (relative stereo) [Example 135, (7R,16R)-19,23-dichloro-1-(cyclopent-1-en-1-yl)-10-({2-[(4S*)-4-fluoro-4-{[2-(2-methoxyethoxy)ethoxy]methyl}cyclohex-1-en-1-yl]pyrimidin-4-yl}methoxy)-20,22-dimethyl-16-[(4-methylpiperazin-1-yl)methyl]-7,8,15,16-tetrahydro-18,21-etheno-13,9-(metheno)-6,14,17-trioxa-2-thia-3,5-diazacyclononadeca[1,2,3-cd]indene-7-carboxylic Acid]
- Ki (GST-MCL-1; [3]): 0.489 nM
- Ki (GST-MCL-1; [4]): 0.029 nM
- IC50 [1, 7]: 0.000191 µM
- IC50 [2, 8]: 0.000591 µM

Structure (SMILES): Cc1c(Cl)c2c(Cl)c(C)c1-c1c(-c3ccc(F)cc3)sc3ncnc(c13)O[C@@H](C(=O)O)Cc1cc(ccc1OCc1ccnc(C3=CCC(CC(=O)O)CC3)n1)OC[C@@H](CN1CCN(C)CC1)O2 (single isomer, unassigned) [Example 35, (7R,16R)-10-({2-[(4S*)-4-(carboxymethyl)cyclohex-1-en-1-yl]pyrimidin-4-yl}methoxy)-19,23-dichloro-1-(4-fluorophenyl)-20,22-dimethyl-16-[(4-methylpiperazin-1-yl)methyl]-7,8,15,16-tetrahydro-18,21-etheno-13,9-(metheno)-6,14,17-trioxa-2-thia-3,5-diazacyclononadeca[1,2,3-cd]indene-7-carboxylic Acid]
- Ki (GST-MCL-1; [3]): 0.113 nM
- Ki (GST-MCL-1; [4]): 0.007 nM
- IC50 [1, 7]: 0.01 µM
- IC50 [2, 8]: 0.017 µM

Structure (SMILES): Cc1c(Cl)c2c(Cl)c(C)c1-c1c(-c3ccc(F)cc3)sc3ncnc(c13)O[C@@H](C(=O)O)Cc1cc(ccc1OCc1ccnc(C3=CCC(CC(=O)O)CC3)n1)OC[C@@H](CN1CCN(C)CC1)O2 (single isomer, unassigned) [Example 37, (7R,16R)-10-({2-[(4R*)-4-(carboxymethyl)cyclohex-1-en-1-yl]pyrimidin-4-yl}methoxy)-19,23-dichloro-1-(4-fluorophenyl)-20,22-dimethyl-16-[(4-methylpiperazin-1-yl)methyl]-7,8,15,16-tetrahydro-18,21-etheno-13,9-(metheno)-6,14,17-trioxa-2-thia-3,5-diazacyclononadeca[1,2,3-cd]indene-7-carboxylic Acid]
- Ki (GST-MCL-1; [3]): 0.124 nM
- Ki (GST-MCL-1; [4]): 0.009 nM
- IC50 [1, 5]: 0.0096 µM
- IC50 [2, 6]: 0.0167 µM

Structure (SMILES): COCCOCCOCCOCCOCCOCC1(C)CC=C(c2nccc(COc3ccc4cc3C[C@H](C(=O)O)Oc3ncnc5sc(-c6ccc(F)cc6)c(c35)-c3c(C)c(Cl)c(c(Cl)c3C)O[C@H](CN3CCN(C)CC3)CO4)n2)CC1 (single isomer, unassigned) [Example 85, (7R,16R)-19,23-dichloro-1-(4-fluorophenyl)-10-({2-[(4S*)-4-(2,5,8,11,14,17-hexaoxaoctadecan-1-yl)-4-methylcyclohex-1-en-1-yl]pyrimidin-4-yl}methoxy)-20,22-dimethyl-16-[(4-methylpiperazin-1-yl)methyl]-7,8,15,16-tetrahydro-18,21-etheno-13,9-(metheno)-6,14,17-trioxa-2-thia-3,5-diazacyclononadeca[1,2,3-cd]indene-7-carboxylic Acid]
- Ki (GST-MCL-1; [3]): 0.191 nM
- Ki (GST-MCL-1; [4]): 0.029 nM
- IC50 [1, 5]: 0.000198 µM
- IC50 [2, 6]: 0.000485 µM

Structure (SMILES): COCCOCCOCC1(F)CC=C(c2nccc(COc3ccc4cc3C[C@H](C(=O)O)Oc3ncnc5sc(-c6ccc(F)cc6)c(c35)-c3c(C)c(Cl)c(c(Cl)c3C)O[C@H](CN3CCN(C)CC3)CO4)n2)CC1 (single isomer, unassigned) [Example 86, (7R,16R)-19,23-dichloro-10-({2-[(4S*)-4-fluoro-4-{[2-(2-methoxyethoxy)ethoxy]methyl}cyclohex-1-en-1-yl]pyrimidin-4-yl}methoxy)-1-(4-fluorophenyl)-20,22-dimethyl-16-[(4-methylpiperazin-1-yl)methyl]-7,8,15,16-tetrahydro-18,21-etheno-13,9-(metheno)-6,14,17-trioxa-2-thia-3,5-diazacyclononadeca[1,2,3-cd]indene-7-carboxylic Acid]
- Ki (GST-MCL-1; [3]): 0.102 nM
- Ki (GST-MCL-1; [4]): 0.008 nM
- IC50 [1, 7]: 0.000105 µM
- IC50 [2, 8]: 0.000258 µM
